The values that follow come from patent publication US12215111B2, “Imidazopyridazine IL-17 inhibitor compounds” (Janssen Pharmaceutica NV, priority 2021, dated 2025).

As a reminder, the IC50 is the midpoint of a concentration-inhibition curve. Lower therefore signals greater potency in that assay.

Test [1] relates to IL-17A-induced G-CSF production in human normal keratinocyte (NHK). Briefly: NHK assay: IL-17A-induced G-CSF production in normal human keratinocytes. The note with it: Homo sapiens, Keratinocyte; IL-17A 5 ng/mL, 24 h at 37° C., G-CSF by HTRF; simple average if tested more than once. The format is cell-based. On the procedure: IL-17A acts directly on keratinocytes through binding to dimeric receptor IL-17RA/RC and drives the production of a number of inflammatory mediators known to be elevated in psoriasis lesional tissue. IL-17A small molecule inhibitors that block the IL-17A to interact with IL-17R would inhibit the IL-17A signaling in its targeted cells such as keratinocytes. The compound functional activity is evaluated for its impact on IL-17A-induced G-CSF production in human normal keratinocyte (NHK).
Adult normal human keratinocytes are cultured in keratinocyte growth medium (Lonza) in a flask till reaching ˜90% confluence, then cells are transferred to a 384-well plate at density of 3000-4000 cell/well. Recombinant human IL-17A (Gibco PHC9174) is pre-incubated with titrated compound or DMSO for 1 h at rt then added to the cell culture plate. The final concentration of IL-17A is 5 ng/mL and DMSO is 0.2%, in the culture containing 5% FBS. Cells are cultured/treated for 24 h at 37° C. Supernatants are collected and G-CSF production is measured through HTRF technology using Human G-CSF Kit (CisBio). G-CSF concentration was extrapolated from the standard curve and IC50 is determined using GraphPad Prism. Cell viability is also evaluated using CellTiter-Glo kit (Promega) and effect of compound on cell viability is compared to DMSO control.

Test [2] deals with IL-17A(FLAG-Tagged): IL-17RA(His-Tagged) (Homo sapiens, UniProt Q16552, K93Q). Briefly: IL-17A(FLAG-tagged):IL-17RA(His-tagged) binding disruption Eu-HTRF assay, Protocol 2. The following applies: FLAG tagged IL-17A at 2× final concentration (1 nM); simple average if tested more than once. From the text: IL-17A(FLAG-Tagged): IL-17RA(His-Tagged) Binding Disruption Eu-HTRF Assay
An antibody directed against the FLAG tag of IL-17A (SEQ ID NO:1) is labeled with the HTRF donor chromophore (Europium-cryptate). IL-17A is present as a dimer that is “locked into” this quaternary structure due to the formation of loop-spanning […] disulfide bridges. The construct of IL-17RA used in the assay excludes the outer-membrane portion of the receptor and is fused to a C-terminal 10×His tag (SEQ ID NO:2). An antibody directed against the His tag of the IL-17RA chimera is labeled with the HTRF acceptor chromophore (“D2”). The fluorescence-resonance energy transfer (FRET) depends on the vicinity of the donor chromophore to the acceptor, and interruption of the binding between the IL-17A and IL-17RA causes the reduction/loss of FRET. Therefore, this assay allows to evaluate the compound effect on the binding IL-17A and IL-17RA by monitoring the fluorescence intensity of donor vs acceptor. The assay was run using either Protocol 1 or Protocol 2 described below.
Protocol 2. 40 nl of 2-fold serial diluted compound solution for total 22 dilution points is added into each well of a 1536-well, white, low-volume, non-binding plate (Greiner #782904), then 2 μl of FLAG tagged IL-17A at 2× final concentration (1 nM) in solution of PBS+0.01% Triton-X100 is added to each well. The assay plate is briefly centrifuged then incubated for 1 h at rt. A mixed solution is prepared containing 2×5 nM 10HIS×IL-17RA, 2×2.5 nM Eu-anti-FLAG (CISBIO), 2×5 nM D2-anti-HIS (CISBIO) in PBS+0.01% Triton-X100+200 mM Potassium Fluoride (Sigma 60238) and […] of mix is added to each well of the assay plate. The plate is briefly centrifuged then incubated for 2 h at rt. The HTRF intensities at the wavelength of donor (615 nm) and acceptor (665 nm) are measured using BMG Pherastar. The ratio between intensities at two wavelengths is calculated and plotted against the compound concentration and the data is fitted to a one-site competition model to yield IC50 of the compound.
On the technique in general: In TR-FRET formats the signal depends on donor and acceptor labels being close together.

Chain of UniProt Q16552 (Q16552 with tags, fused parts or gaps K93Q): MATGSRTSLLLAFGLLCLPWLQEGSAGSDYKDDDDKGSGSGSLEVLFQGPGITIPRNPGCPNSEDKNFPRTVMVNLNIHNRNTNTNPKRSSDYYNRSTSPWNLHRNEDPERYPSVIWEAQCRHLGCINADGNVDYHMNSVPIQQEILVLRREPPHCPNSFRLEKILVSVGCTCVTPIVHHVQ

`COC[C@H](c1cnn2cc([C@H](CCC(C)(C)C(F)(F)F)NC(=O)c3nonc3C)nc2c1)N1C[C@@](C)(C(F)(F)F)NC1=O` (single isomer, unassigned) [Example 31]: the IC50 in test [1] and in test [2] was less than 4 µM each time.
As to `COCCC(c1cnn2cc([C@@H](NC(=O)c3nonc3C)C3CCC(F)(F)CC3)nc2c1)N1C[C@@H](C(F)(F)F)NC1=O` (single isomer, unassigned) [Example 40, N—((S)—(4,4-Difluorocyclohexyl)(7-((R*)-3-methoxy-1-((S)-2-oxo-4-(trifluoromethyl)imidazolidin-1-yl)propyl)imidazo[1,2-b]pyridazin-2-yl)methyl)-4-methyl-1,2,5-oxadiazole-3-carboxamide], the IC50 in test [1] and in test [2] was less than 4 µM in each case.
Consider `COCCC(c1cnn2cc([C@@H](NC(=O)c3nonc3OC)C3CCC(F)(F)CC3)nc2c1)N1C[C@@H](C(F)(F)F)NC1=O` (single isomer, unassigned) [Example 42, N—((S)—(4,4-Difluorocyclohexyl)(7-((R*)-3-methoxy-1-((S)-2-oxo-4-(trifluoromethyl)imidazolidin-1-yl)propyl)imidazo[1,2-b]pyridazin-2-yl)methyl)-4-methoxy-1,2,5-oxadiazole-3-carboxamide], for which the IC50 in test [1] and in test [2] was less than 4 µM throughout.
In the case of `CC(C)n1nccc1C(=O)N[C@H](c1cn2ncc([C@@H](COC3CC3)N3C[C@@H](C(F)(F)F)NC3=O)cc2n1)C1CCC(F)(F)CC1` (single isomer, unassigned) [Example 43], the IC50 in test [1] and in test [2] was less than 4 µM throughout.
Consider `COCC(c1cnn2cc([C@H](COC(C)(C)C(F)(F)F)NC(=O)c3nonc3C)nc2c1)N1C[C@@](C)(C(F)(F)F)NC1=O` (stereo partly drawn) [Example 23], for which the IC50 in test [1] and in test [2] was less than 4 µM in each case.
For `COC[C@H](c1cnn2cc([C@@H](NC(=O)c3nonc3C)C3CCC(F)(F)CC3)nc2c1)N1C[C@@H](C2(C#N)CC2)NC1=O` [Example 25, N—((S)-(7-((S)-1-((R)-4-(1-Cyanocyclopropyl)-2-oxoimidazolidin-1-yl)-2-methoxyethyl)imidazo[1,2-b]pyridazin-2-yl)(4,4-difluorocyclohexyl)methyl)-4-methyl-1,2,5-oxadiazole-3-carboxamide], the IC50 in test [1] and in test [2] was less than 4 µM each time.
On to `COC[C@H](c1cnn2cc([C@@H](NC(=O)c3nonc3C)C3CCC(F)(F)CC3)nc2c1)N1C[C@@H](C(F)F)NC1=O` [Example 26, N—((S)—(4,4-Difluorocyclohexyl)(7-((S)-1-((S)-4-(difluoromethyl)-2-oxoimidazolidin-1-yl)-2-methoxyethyl)imidazo[1,2-b]pyridazin-2-yl)methyl)-4-methyl-1,2,5-oxadiazole-3-carboxamide], for which the half-maximal inhibitory concentration (IC50) in test [1] and in test [2] was less than 4 µM each time.
For the compound `COC[C@H](c1cnn2cc([C@@H](NC(=O)c3nonc3C)[C@@H](C)O[C@H](C)C(F)(F)F)nc2c1)N1C[C@@H](C(F)(F)F)NC1=O` [Example 27, N-((1R,2R)-1-(7-((S)-2-Methoxy-1-((S)-2-oxo-4-(trifluoromethyl)imidazolidin-1-yl)ethyl)imidazo[1,2-b]pyridazin-2-yl)-2-(((R)-1,1,1-trifluoropropan-2-yl)oxy)propyl)-4-methyl-1,2,5-oxadiazole-3-carboxamide], the IC50 in test [1] and in test [2] was less than 4 µM in each case.
For the compound `Cc1nonc1C(=O)N[C@@H](CC(C)(C)C(F)(F)F)c1cn2ncc([C@@H](COC3CC3)N3C[C@@H](C(F)(F)F)NC3=O)cc2n1` [Example 37], the IC50 in test [1] and in test [2] was less than 4 µM each time.
For the compound `COCC[C@H](c1cnn2cc([C@@H](NC(=O)c3nonc3C3CC3)C3CCC(F)(F)CC3)nc2c1)N1C[C@@H](C(F)(F)F)NC1=O` [Example 41, 4-Cyclopropyl-N—((S)—(4,4-difluorocyclohexyl)(7-((R)-3-methoxy-1-((S)-2-oxo-4-(trifluoromethyl)imidazolidin-1-yl)propyl)imidazo[1,2-b]pyridazin-2-yl)methyl)-1,2,5-oxadiazole-3-carboxamide], the 50% inhibitory concentration (IC50) in test [1] and in test [2] was less than 4 µM in each case.
`Cc1nonc1C(=O)N[C@@H](COC(C)(C)C(F)(F)F)c1cn2ncc([C@@H](COC3CC3)N3C[C@@H](C(F)(F)F)NC3=O)cc2n1` [Example 45]: the IC50 in test [1] and in test [2] was less than 4 µM in each case.
`CC(C)n1nccc1C(=O)N[C@H](c1cn2ncc(CN3CC4(CC(F)(F)C4)NC3=O)cc2n1)C1CCC(F)(F)CC1` [Example 46, (S)—N-((7-((2,2-Difluoro-6-oxo-5,7-diazaspiro[3.4]octan-7-yl)methyl)imidazo[1,2-b]pyridazin-2-yl)(4,4-difluorocyclohexyl)methyl)-1-isopropyl-1H-pyrazole-5-carboxamide]: the values for the IC50 in test [1] and in test [2] were 4 to 10 µM and less than 4 µM, respectively.
In the same order, the values of `COC[C@H](c1cnn2cc([C@H](CCC(C)(C)C(F)(F)F)NC(=O)c3nonc3OC)nc2c1)N1C[C@@](C)(C(F)(F)F)NC1=O` [Example 47, 4-Methoxy-N—((S)-5,5,5-trifluoro-1-(7-((S)-2-methoxy-((S)-4-methyl-2-oxo-4-(trifluoromethyl)imidazolidin-1-yl)ethyl)imidazo[1,2-b]pyridazin-2-yl)-4,4-dimethylpentyl)-1,2,5-oxadiazole-3-carboxamide] are less than 4 µM and less than 4 µM.
The matching figures for `Cc1nonc1C(=O)N[C@@H](CCC(C)(C)C(F)(F)F)c1cn2ncc(CN3C[C@@](C)(C(F)(F)F)NC3=O)cc2n1` [Example 48, 4-Methyl-N—((S)-5,5,5-trifluoro-4,4-dimethyl-1-(7-(((S)-4-methyl-2-oxo-4-(trifluoromethyl)imidazolidin-1-yl)methyl)imidazo[1,2-b]pyridazin-2-yl)pentyl)-1,2,5-oxadiazole-3-carboxamide]: less than 4 µM and less than 4 µM.
The matching figures for `Cc1nonc1C(=O)N[C@@H](CCC(C)(C)C(F)(F)F)c1cn2ncc(CN3C[C@](C)(C(F)(F)F)NC3=O)cc2n1` [Example 49, 4-Methyl-N—((S)-5,5,5-trifluoro-4,4-dimethyl-1-(7-(((R)-4-methyl-2-oxo-4-(trifluoromethyl)imidazolidin-1-yl)methyl)imidazo[1,2-b]pyridazin-2-yl)pentyl)-1,2,5-oxadiazole-3-carboxamide]: less than 4 µM and less than 4 µM.
